Key:
[1] = test system: CRE-GFP 293 cells; assay: CRE-GFP 293 reporter cell assay (flow cytometry); format: cell-based, Human
Description: Using the pCRE-MetLuc2-Reporter plasmid (Clontech, Mountain View, CA, USA) as a template, the DNA fragment containing the cAMP response element (CRE) motifs and TATA-like promoter (PTAL) flanked by MluI and AgeI restriction sites was amplified by PCR using sense ([…], MluI site underlined) and antisense ([…], AgeI site underlined) primers. The amplified CRE-PTAL promoter fragment was cloned into pGEM-T Easy (Promega, Madison, WI, USA) and sequenced. The CRE-PTAL-containing MluI/AgeI fragment and GFP-containing AgeI/NotI fragment (from pEGFP-N1; Clontech) were subcloned into MluI- and NotI-digested pcDNA5/FRT/TO (Novagen, Madison, WI, USA). The resulting construct with CRE-PTAL-driving GFP was used to establish 293 GFP reporter cells by targeting insertion into Flp-In-293 cells according to the supplier's instructions (Invitrogen). The cells were grown in a medium containing 5 μg/ml blasticidin and 100 μg/ml hygromycin.
On day 1, CRE-GFP 293 cells were seeded into 48-well plates (5 × 10^4/well). After 24 h, cells were treated with Ca^2+ ionophore (2 μM) (Sigma-Aldrich) for 0–24 h. Cell viability was measured using 3,(4,5-dimethylthiazol-2-yl)-2,5-diphenyltetrazolium bromide (MTT) assay (Sigma-Aldrich). The absorbance of the insoluble purple formazan dye was quantified at 570 nm on a μQuant microplate spectrophotometer (Bio-Tek). In addition, the cells were treated with the Ca^2+ ionophore A23187 (0.5–10 μM) (Sigma-Aldrich) for 5 h, followed by analysis of GFP fluorescence by flow cytometry (Becton–Dickinson, Franklin Lakes, NJ, USA) with excitation/emission wavelengths at 488/507 nm. To monitor CREB activation, cells were treated with forskolin or coumarin-chalcone derivatives (5–10 μM) in the presence or absence of Ca^2+ ionophore (2 μM) for 5 h, and GFP fluorescence was analysed.
(§1) To monitor the cAMP-mediated signal transduction pathway, CRE-GFP 293 cells in 6-well plates (1 × 10^6/well) were pretreated with kinase inhibitor H-89 (LC Laboratories, Woburn, MA, USA), KN-62 (Cayman Chemical, Ann Arbor, MI, USA), U0126 (LC Laboratories), or wortmannin (LC Laboratories) (10 μM) for 4 h before forskolin or LM-021 (10 μM) addition for 5 h. GFP fluorescence/protein and total/phosphorylated PKA, CaMKII, ERK, PI3K, and CREB levels were examined. In addition, Aβ-GFP or ∆K280 tauRD-DsRed SH-SY5Y cells were treated with retinoic acid (10 μM) on day 1, followed by the addition of LM-021 (5 or 10 μM) and doxycycline (5 or 2 μg/ml) on day 2, as described. Kinase inhibitors (10 μM) were added on day 6. On day 8, the cells were collected for protein expression analysis of BDNF, BCL2 (BCL2 apoptosis regulator), and BAX (BCL2 associated X, apoptosis regulator), and total/phosphorylated PKA, CaMKII, ERK, PI3K, and CREB. Also, cells were stained with DAPI and assessed for neurite outgrowth as described above.

[2] = test system: Aβ-GFP SH-SY5Y cells; assay: High content analysis of neurite outgrowth in Aβ-GFP cells; format: cell-based, Human; conditions: inhibitor 10 μM on day 6, LM-021 5 μM
Description: (§2) On day 1, Aβ-GFP or ∆K280 tauRD-DsRed SH-SY5Y cells were plated into 24-well plates (6 × 10^4/well) followed by addition of retinoic acid. On day 2, cells were treated with coumarin-chalcone derivatives (5 or 10 μM) and with doxycycline (5 or 2 μg/ml) to induce the expression of Aβ-GFP or ∆K280 tauRD-DsRed. On day 8, 4% paraformaldehyde, 0.1% Triton X-100, and 3% BSA were used to fix, permeabilize, and block cells, respectively. Subsequently, the cells were stained with TUBB3 (neuronal class III β-tubulin) primary antibody (1 : 1000; Covance, Princeton, NJ, USA) at 4°C overnight. Goat anti-rabbit Alexa Fluor 555 secondary antibody (1 : 1000; Thermo Fisher Scientific) was then added, followed by a 3 h incubation at room temperature. Following staining nuclei with 4′,-6-diamidino-2-phenylindole (DAPI) (0.1 μg/ml; Sigma-Aldrich), the neurons were imaged by using the HCA system and analysed by using the Neurite Outgrowth Application Module (MetaXpress; Molecular Devices).
as §1

[3] = test system: ∆K280 tauRD-DsRed SH-SY5Y cells; assay: High content analysis of neurite outgrowth in ΔK280 tauRD-DsRed cells; format: cell-based, Human; conditions: inhibitor 10 μM on day 6, LM-021 10 μM
Description: as §2, §1

[4] = test system: CRE-GFP 293 cells; assay: Western blot in CRE-GFP 293 cells; format: cell-based, Human; conditions: inhibitor 10 μM, LM-021 10 μM, without Ca2+ ionophore, immunoblot
Description: as §1
Total proteins from CRE-GFP 293 and Aβ-GFP, ∆K280 tauRD-DsRed SH-SY5Y cells were extracted using lysis buffer (50 mM Tris-HCl (pH 8.0), 150 mM NaCl, 1 mM EDTA (pH 8.0), 1 mM EGTA (pH 8.0), 0.1% SDS, 0.5% sodium deoxycholate, 1% Triton X-100) containing phosphatase and protease inhibitor cocktails (Sigma-Aldrich). Protein concentrations were measured using a protein assay kit (Bio-Rad, Hercules, CA, USA), and 20 μg of proteins was separated with 10% SDS-PAGE and blotted onto polyvinylidene difluoride (PVDF) membranes (Sigma-Aldrich). […]

[5] = test system: Aβ-GFP SH-SY5Y cells; assay: Western blot in Aβ-GFP SH-SY5Y cells; format: cell-based, Human; conditions: inhibitor 10 μM on day 6, LM-021 5 μM
Description: as §1
(§3) Total proteins from CRE-GFP 293 and Aβ-GFP, ∆K280 tauRD-DsRed SH-SY5Y cells were extracted using lysis buffer (50 mM Tris-HCl (pH 8.0), 150 mM NaCl, 1 mM EDTA (pH 8.0), 1 mM EGTA (pH 8.0), 0.1% SDS, 0.5% sodium deoxycholate, 1% Triton X-100) containing phosphatase and protease inhibitor cocktails (Sigma-Aldrich). Protein concentrations were measured using a protein assay kit (Bio-Rad, Hercules, CA, USA), and 20 μg of proteins was separated with 10% SDS-PAGE and blotted onto polyvinylidene difluoride (PVDF) membranes (Sigma-Aldrich). After blocking, the membrane blot was incubated with primary antibody against GFP (1 : 500; Santa Cruz Biotechnology, Santa Cruz, CA, USA), PKA (1 : 1000; R&D Systems, Minneapolis, MN, USA), p-PKA (T197) (1 : 1000; Cell Signaling, Danvers, MA, USA), ERK (1 : 500; Cell Signaling), p-ERK (T202/Y204) (1 : 500; Cell Signaling), CaMKII (1 : 1000; Santa Cruz Biotechnology), p-CaMKII (T286) (1 : 1000; Cell Signaling), CREB (1 : 1000; Santa Cruz Biotechnology), p-CREB (S133) (1 : 1000; Millipore, Billerica, MA, USA), BDNF (1 : 500; Santa Cruz Biotechnology), BCL2 (1 : 500; BioVision), BAX (1 : 500; BioVision), GAPDH (glyceraldehyde-3-phosphate dehydrogenase, as a loading control) (1 : 1000; MDBio, Taipei, Taiwan), or β-tubulin (1 : 1000, Sigma-Aldrich, as a loading control). The immune complexes were visualized using horseradish peroxidase-conjugated goat anti-mouse or goat anti-rabbit IgG antibody (1 : 5000, GeneTex, Irvine, CA, USA) and a chemiluminescent substrate (Millipore).

[6] = test system: ∆K280 tauRD-DsRed SH-SY5Y cells; assay: Western blot in ΔK280 tauRD-DsRed SH-SY5Y cells; format: cell-based, Human; conditions: inhibitor 10 μM on day 6, LM-021 10 μM
Description: as §1, §3

[7] = DPPH radical-scavenging assay; conditions: compounds 10–160 μM, 100 μM DPPH, 30 min, n = 3
Description: Stable free radical 1,1-diphenyl-2-picrylhydrazyl (DPPH) (Sigma-Aldrich) was applied to test the potential radical-scavenging activity of the coumarin-chalcone derivatives. In brief, the compounds (10–160 μM) were added to an ethanol solution containing 100 μM DPPH. The mixture was vortexed for 15 sec, left to stand for 30 min at room temperature, and scavenging capacity was measured at a wavelength of 517 nm using a Multiskan GO microplate spectrophotometer (Thermo Fisher Scientific, Waltham, MA, USA).

Structure (SMILES)	Effect of kinase inhibitor on LM-021-activated GFP levels ([1]; inhibitor 10 μM 4 h before LM-021 10 μM, presence or absence of Ca2+ ionophore)	Effect of kinase inhibitor on forskolin-activated GFP level ([1]; inhibitor 10 μM 4 h before forskolin 10 μM, presence of Ca2+ ionophore)	Effect of kinase inhibitor on LM-021-improved neurite length, processes, and branches [2]	Effect of kinase inhibitor on LM-021-ameliorated neurite length and branch length [3]	Effect of kinase inhibitor on increased p-CREB and GFP protein levels [4]	Effect of kinase inhibitor on LM-021-upregulated kinase phosphorylation [5]	Effect of kinase inhibitor on LM-021 increase in p-CREB, pro-BDNF, m-BDNF, and BCL2 [5]	Effect of kinase inhibitor on LM-021-upregulated kinase phosphorylation [6]	Effect of kinase inhibitor on LM-021 upregulation of p-CREB, pro-BDNF, m-BDNF, and BCL2 [6]	EC50 [7] [µM]
O=S(=O)(NCCNC/C=C/c1ccc(Br)cc1)c1cccc2cnccc12 [H-89]	attenuated the GFP levels	attenuated the GFP level	counteracted these improvements	reversed these effects	significantly reduced	mitigated the increase of p-PKA	attenuated the increase	reduced the upregulation of p-PKA	attenuated the upregulation	–
O=c1c(O)c(-c2ccc(O)cc2)oc2cc(O)cc(O)c12 [Kaempferol, kaempferol, reference compound]	–	–	–	–	–	–	–	–	–	28

From publication PMC8605905 (Oxidative Medicine and Cellular Longevity, 2021)
